Drawing on BindingDB's records for doi:10.1021/jm00001a001 (Biochem Therapeutic, 1995), this text covers IC50 for one compound.

Structures are written as SMILES.

For the assay, the target named is Reverse transcriptase/RNaseH (Human immunodeficiency virus 1, UniProt Q72547). Nature of the assay: Ability to inhibit the HIV-1 reverse transcriptase in cord blood mononuclear cells.

As a reminder, the IC50 is the concentration needed to halve the response being measured. Read a low IC50 as inhibition by little substance. In turn, `Cc1cn([C@H]2C[C@H](N=[N+]=[N-])[C@@H](CO)O2)c(=O)[nH]c1=O` [1-((2R,4S,5S)-4-Azido-5-hydroxymethyl-tetrahydro-furan-2-yl)-5-methyl-1H-pyrimidine-2,4-dione] came in with a half-maximal inhibitory concentration (IC50) of 30 nM.
